Data on 33 compounds can be found in ChEMBL document CHEMBL4476866, “Pyrrol-1-yl benzoic acid derivatives useful as myc inhibitors” (2015).

The first assay relates to MM1.S. In words: Cytotoxic activity against human MM1S cells assessed as reduction in cell viability incubated for 3 days by ATPlite assay. The assay is classed as functional, cell-based. As to conditions: Homo sapiens, MM1.S, 72 h; read-out: EC50; call rule not given here.
`Cc1ccc(C)n1-c1ccc(C(=O)O)c(O)c1`: the EC50 was 517 to 1440 µM. The same measure, in the same setting: to `CC(=O)OCOC(=O)c1ccc(C(=O)N/N=C/c2ccc(O)c(O)c2O)cc1-n1c(C)ccc1C` belongs 14.8 µM.

The assay is the same for the next values; noted with them: mm1.s.
As for `Cc1ccc(C)n1-c1cc(C(=O)N/N=C\c2cccc(C(=O)O)c2)ccc1C(=O)O`, the EC50 result is “Not Active”. On the same count and under the same terms, to `COc1ccc(/C=N/NC(=O)c2ccc(C(=O)O)c(-n3c(C)ccc3C)c2)c(OC)c1` belongs “Not Active”.

Consider `Cc1ncc(CO)c(/C=N/NC(=O)c2ccc(C(=O)O)c(-n3c(C)ccc3C)c2)c1O`, for which the concentration for a half-maximal effect (EC50) result is “Not Active”. On the same count and under the same terms, as for `Cc1ccc(C)n1-c1cc(C(=O)N/N=C/c2c[nH]c3cc(F)ccc23)ccc1C(=O)O`, the entry is “Not Active”. Still for that read-out and setting: as for `Cc1c2ccccc2c(C)n1-c1ccccc1C(=O)O`, the entry is “Not Active”; as for `CN1CCN(c2ccccc2C(=O)O)CC1`, “Not Active”; as for `COc1ncc(/C=N/NC(=O)c2ccc(C(=O)O)c(-n3c(C)ccc3C)c2)c(OC)n1`, “Not Active”. The same measure, in the same setting: to `Cc1ccc(C)n1-c1cc(C(=O)NNC(=O)c2cccc(C(=O)O)c2)ccc1C(=O)O` belongs “Not Active”; to `Cc1ccc(C)n1-c1cc(C(=O)N/N=C/c2cccc3ncccc23)ccc1C(=O)O`, “Not Active”.

On to `Cc1ccc(C)n1-c1ncccc1C(=O)O`, for which the EC50 result was “Not Active”.

In the case of `Cc1ccc(C)n1-c1cc(C(=O)N/N=C\c2ccc(O)c(F)c2)ccc1C(=O)O`, the EC50 entry is “Not Active”.

Consider `Cc1ccc(C)n1-c1cc(C(=O)N/N=C/c2cc(F)c(F)c(F)c2)ccc1C(=O)O`, for which the EC50 entry is recorded as “Not Active”. Still for that read-out and setting: to `Cc1cc(C(=O)O)ccc1-n1c(C)ccc1C` belongs “Not Active”; to `Cc1ccc(C)n1-c1cc(C(=O)N/N=C\c2ccc(S(=O)(=O)O)cc2)ccc1C(=O)O`, “Not Active”; to `Cc1ccc(C)n1-c1ccc(C(=O)O)cc1O`, “Not Active”. Same read-out and setting: as for `CC(=O)OCOC(=O)c1ccc(C(=O)N/N=C/c2c[nH]cn2)cc1-n1c(C)ccc1C`, the entry is “Not Active”; as for `Cc1ccc(C)n1-c1cccc(C(=O)c2ccccc2)c1C(=O)O`, “Not Active”; as for `Cc1ccc(C)n1-c1ccc(Cl)cc1C(=O)O`, “Not Active”.

Consider `CN(C)c1ccc(/N=N/c2ccccc2C(=O)O)cc1`, for which the EC50 result was “Not Active”. On the same count and under the same terms, as for `Cc1ccc(C)n1-c1cc(C(=O)N/N=C\c2ccc(C(=O)O)s2)ccc1C(=O)O`, the entry is “Not Active”.

Turning to `Cc1ccc(C)n1-c1cc(C(=O)N2CCOCC2)ccc1C(=O)O`, the EC50 entry was “Not Active”. Same read-out and setting: as for `Cc1ccc(C)n1-c1cc(C(=O)N/N=C/c2ccc(S(=O)(=O)O)o2)ccc1C(=O)O`, the entry is “Not Active”.

`Cc1ccc(C)n1-c1cc(C(=O)N/N=C/c2ncc[nH]2)ccc1C(=O)O`: the EC50 result was “Not Active”.

A further assay relates to NCI-H2171. The assay is described as follows: Cytotoxic activity against human NCI-H2171 cells assessed as reduction in cell viability incubated for 3 days by ATPlite assay. The class given is functional, cell-based. As to conditions: Homo sapiens, NCI-H2171, 72 h; read-out: EC50.
As to `Cc1ccc(C)n1-c1ccc(C(=O)O)c(O)c1`, the EC50 is 189 to 517 µM. The same measure, in the same setting: as for `CC(=O)OCOC(=O)c1ccc(C(=O)N/N=C/c2ccc(O)c(O)c2O)cc1-n1c(C)ccc1C`, the figure is 2.23 µM.

Still in this assay, the particulars now being: nci-h2171.
`Cc1ccc(C)n1-c1cc(C(=O)N/N=C/c2cccnc2)ccc1C(=O)O`: the EC50 entry is given as “Not Active”. On the same count and under the same terms, as for `Cc1ccc(C)n1-c1cc(C(=O)N/N=C\c2cccc(C(=O)O)c2)ccc1C(=O)O`, the entry is “Not Active”; as for `Cc1cc(C)c2c(=O)c(/C=N/NC(=O)c3ccc(C(=O)O)c(-n4c(C)ccc4C)c3)coc2c1`, “Not Active”; as for `Cc1c2ccccc2c(C)n1-c1ccccc1C(=O)O`, “Not Active”. On the same count and under the same terms, to `Cc1ccc(C)n1-c1ccc(C(=O)O)c([N+](=O)[O-])c1` belongs “Not Active”; to `Cc1ccc(C)n1-c1cnccc1C(=O)O`, “Not Active”. For the compound `Cc1ccc(C)n1-c1cc(C(=O)NNC(=O)c2cccc(C(=O)O)c2)ccc1C(=O)O`, the EC50 entry is “Not Active”.

On to `Cc1ccc(C)n1-c1cc(C(=O)N/N=C/c2ccc(N(C)C)cc2)ccc1C(=O)O`, for which the EC50 entry was “Not Active”. Still for that read-out and setting: to `Cc1ccc(C)n1-c1cc(C(=O)N/N=C/c2ccc3ccccc3n2)ccc1C(=O)O` belongs “Not Active”; to `Cc1ccc(C)n1-c1cc(C(=O)N/N=C\c2ccc(O)c(F)c2)ccc1C(=O)O`, “Not Active”; to `Cc1ccc(C)n1-c1cc(C(=O)N/N=C/c2cc(C(=O)O)ccc2F)ccc1C(=O)O`, “Not Active”. Consider `Cc1ccc(C)n1-c1cc(C(=O)N/N=C/c2ccc3cccnc3n2)ccc1C(=O)O`, for which the EC50 result is on record as “Not Active”.

Broadly, the EC50 is the midpoint of the concentration-response curve.
